Experimental data taken from patent publication US20140303396A1, “Method for Preparing High-Purity Fesoterodine Fumarate” (CHEMI S.P.A., priority 2009, published 2014).

How the values were obtained:
[1] = Solid stability at T = 60° C. in atmosphere with 60% relative humidity (HPLC); format: physicochemical; parameters: Impurity RRt = 1.05 / Impurity RRt = 1.34 / Diester impurity: unit not given here
Procedure: In confirmation thereof, another stability test was carried out at 60° C. on the crystallized solid product, whose results are reported in Table 2. In detail, the experiment consists of introducing a sample of fesoterodine fumarate in an oven capable of maintaining a temperature of 60° C. and 60% relative humidity, drawing samples of the freshly introduced substance (time 0) after 24, 48, 72 and 144 hours staying in such conditions, and analyzing them in HPLC in order to verify their purity.

[2] = Solution stability in methylethylketone at T = 40° C. (HPLC); format: physicochemical
Procedure: In detail, the experiment related to Table 1 consists of dissolving fesoterodine fumarate in methylethylketone at 40° C., drawing samples of the freshly dissolved solution (time 0), after 1, 3 and 20 hours of maintenance at 40° C. and analyzing them in HPLC in order to verify their purity.

## CC(C)C(=O)Oc1ccc(CO)cc1[C@H](CCN(C(C)C)C(C)C)c1ccccc1.O=C(O)/C=C/C(=O)O [fesoterodine fumarate, 2-((R)-3-diisopropylammonium-1-phenylpropyl)-4-(hydroxymethyl) phenyl isobutyrate hydrogen fumarate]
[1]; t = 0
  (R)-feso-deacyl: 0.02%
  Diester impurity: 0.04
  Feso fumaric ester impurity: 0.09
  HPLC Purity: 99.85 Area %
[1]; t = 24 h
  (R)-feso-deacyl: 0.02%
  Diester impurity: 0.04
  Feso fumaric ester impurity: 0.11
  HPLC Purity: 99.83 Area %
[1]; t = 48 h
  (R)-feso-deacyl: 0.02%
  Diester impurity: 0.04
  Feso fumaric ester impurity: 0.12
  HPLC Purity: 99.74 Area %
  Impurity RRt = 1.34: 0.08
[1]; t = 72 h
  (R)-feso-deacyl: 0.03%
  Diester impurity: 0.04
  Feso fumaric ester impurity: 0.13
  HPLC Purity: 99.72 Area %
  Impurity RRt = 1.05: 0.02
  Impurity RRt = 1.34: 0.06
[1]; t = 144 h
  (R)-feso-deacyl: 0.05%
  Diester impurity: 0.04
  Feso fumaric ester impurity: 0.14
  HPLC Purity: 99.64 Area %
  Impurity RRt = 1.05: 0.03
  Impurity RRt = 1.34: 0.07
  RRt = 1.86: 0.03%
[2]; t = 0
  Feso fumaric ester impurity: 0.07
  HPLC Purity: 99.87 Area %
  Impurity RRt = 1.34: 0.06
[2]; t = 1 hour
  Feso fumaric ester impurity: 0.09
  HPLC Purity: 99.85 Area %
  Impurity RRt = 1.34: 0.06
[2]; t = 3 hours
  (R)-feso-deacyl: 0.01%
  Diester impurity: 0.04
  Feso fumaric ester impurity: 0.12
  HPLC Purity: 99.77 Area %
  Impurity RRt = 1.34: 0.06
[2]; t = 20 hours
  (R)-feso-deacyl: 0.02%
  Diester impurity: 0.06
  Feso fumaric ester impurity: 0.14
  HPLC Purity: 99.70 Area %
  Impurity RRt = 1.34: 0.08
